Key:
[1] = system: all tested cancer cells (Tab. 1); experiment: Proliferation of all tested tumor cell lines (Table 1); format: cell-based; conditions: 19 tumor cell lines of Tab. 1
Excerpt: The inventors have tested 19 different tumor cell lines in total, including five melanoma cell lines, two liver cancer cell lines, three breast cancer cell lines, three colon cancer cell lines, two prostate cancer cell lines, two lung cancer cell lines and to renal cancer cell lines.

angiogenesis = conditions: chorioallantois membrane assays in vivo; cited from earlier work
[2] = system: breast cancer cells MCF-7; conditions: cited from earlier work
SK-MEL-28 melanoma cells = experiment: Apoptosis antibody array (35 proteins); format: cell-based, human; conditions: SK-MEL-28, 100 μM, 4 hours
Description: Apoptosis assay (35 proteins) performed on lysates of SK-MEL-28 melanoma cells 4 hours after treatment with 100 μM of 6-PN or 8-PN. Protein expression levels were estimated performing a densitometric analysis. Neither 6-PN nor 8-PN yielded a significant change of expression of the analyzed proteins involved in apoptosis.
Testing of apoptosis induction was performed with the human Proteom-Profiler-Apoptosis-Antibody-Array-Kit (R & D Systems, Wiesbaden, Germany) as described by the manufacturer after treatment of SK-MEL-28 melanoma cells with 100 μM 6-PN or 100 μM 8-PN for 4 hours.
To further analyze the possibility of apoptosis induction, an extensive apoptosis assay was performed on SK-MEL-28 melanoma cells 4 hours after treatment with 100 μM 6-PN or 8-PN (FIG. 9). […] This was verified by FACS cell cycle analyses to screen for a possible increase of the sub-G1 fraction of cells (apoptotic cells) or for the induction of a G2 arrest (inhibition of proliferation). […] To further differentiate between the induction of apoptosis and/or necrosis an PI/Annexin V staining of SK-MEL-28 and BLM cells was performed 4 hours and 24 hours after the treatment with 6-PN or 8-PN; 10 μM staurosporin (6 hours treatment) was used as positive control for the induction of apoptosis; DMSO treatment was used as vehicle control. The cells were then analyzed by FACS.

[3] = system: histon protein H3 acetylation in SK-MEL-28 melanoma cells; experiment: Western blot of acetylated histon H3, SK-MEL-28; format: cell-based, human; conditions: SK-MEL-28, 100 μM, two hours, vs. DMSO control
Description: FIG. 4: 6-PN and 8-PN induce a hyper acetylation in SK-MEL-28 melanoma cells. Western blot analysis of acetylated histon complex H3 in cellular lysates of BLM and SK-MEL-28 cells treated with 100 μM 6-PN or 8-PN for 1, 2, 4, 12 and 24 h, or with 100 μM SAHA (as reference HDACi) for 24 h. Equal protein loading was verified by vinculin staining (lower rows). At 24 hours (BLM) and 2 hours (SK-MEL-28) after the PN treatment a prominent up-regulation of ac-H3 is detectable. The protein expression levels were estimated performing a densitometric analysis.
(§1) The following antibodies were used: Anti-Vinculin and Anti-Actin (1:5000, Sigma-Aldrich), Anti-Acetyl-Histon H3 (1:5000, Millipore, Billerica, USA), Anti-Caspase-3 (1:1000), Anti-AKT, Anti-pAKT, Anti-ERK, Anti-pERK, […], Anti-p70S6 Kinase, and Anti-pS6 protein (1:1000), all from Cell Signaling, Frankfurt, Germany), Anti-LC3 (1:5000, Sigma-Aldrich).
An incubation of cells with HDACi induces generally a hyperacetylation of histon proteins. Therefore, the acetylation status of the histon protein H3 after treatment with 6-PN or 8-PN was investigated. Corresponding to the HDAC screening results, a direct effect was monitored. […] SAHA was used as control HDACi (at 100 μM, 24 hours treatment).

[4] = system: angiogenesis induced by basic fibroblast growth factor and vascular endothelial growth factor; conditions: induced by bFGF and VEGF, three-dimensional collagen gel in vitro; cited from earlier work
[5] = system: pS6P, P70S6 kinase, pERK, caspase-3, Bcl-xl in SK-MEL-28 melanoma cells; experiment: Western blot of signalling proteins; format: cell-based, human; conditions: SK-MEL-28, 100 μM
Description: FIG. 8: 6-PN and 8-PN decrease expression of pS6p via down regulation of pERK/pP90. Western blot analysis of SK-MEL-28 melanoma cells 1 hour, 2 hours, 4 hours, 12 hours, and 24 hours after treatment with 100 μM 6-PN or 8-PN. 6-PN and 8-PN induced down regulation of pS6p accompanied by a decrease of pERK and pP90, respectively. 6-PN and 8-PN induced time dependent increase of p70s6-kinase.
as §1
To further analyze the type of cell death induced by 6-PN and 8-PN, western blot analyses of SK-MEL-28 melanoma cells were performed 1, 2, 4, 12 and 24 hours after the treatment with 100 μM 6-PN and 8-PN. […] Upon PN treatment an inconsistent expression of oncogenic AKT and phospho-AKT (pAKT) was detected. […] Thus, there was an obvious discrepancy between the expression of pAKT and pS6P. Therefore it was first also looked for the expression of P70S6 kinase and its phosphorylated form. […] Therefore it was next asked whether the S6P could be phosphorylated by a different mechanism. In this respect, activated ERK can phosphorylate the p90 ribosomal S6 kinase (pP90). pP90 also phosphorylates the S6P (in addition to the P70S6 kinase). Since the pP70S6 kinase was absent in the used cells (SK-MEL-28 and BLM), it was hypothesized that the phosphorylation of the S6P was conducted via the pERK/pP90 pathway, independent from the P70S6 signalling. This hypothesis was supported by the parallel down-regulation of the bands for pP90 (Thr359/Ser363) and pS6P 12 hours after the treatment with 6-PN, and the reappearance of both bands after 24 hours (FIG. 8). […] The western blot experiments were repeated with BLM cells under the same treatment conditions and yielded similar results (not shown).

In the case of `CC(C)=CCc1c(O)cc(O)c2c1OC(c1ccc(O)cc1)CC2=O` (stereo not shown) [8-PN, 5,7-Dihydroxy-2-(4-hydroxy-phenyl)-8-(3-methyl-but-2-enyl)-chroman-4-one], the “cell proliferation in all tested cancer cells” value [1] is given as “effectively reduce cell proliferation”, the angiogenesis (angiogenesis) is given as “inhibits the angiogenesis” and the “effects on breast cancer cells compared with 17β-Estradiol” value [2] is given as “imitates the effects of 17β-Estradiol”. The “apoptosis induction (expression of 35 apoptosis proteins, densitometric)” value (SK-MEL-28 melanoma cells) was “not apoptosis related”, the “histon complex H3 acetylation” value [3] was “massive increase” and the angiogenesis [4] was “inhibits the angiogenesis”. For the same molecule, the “protein levels of caspase-3 and Bcl-xl” value ([5]; 1-24 hours) was “decreased protein levels”, the “phospho-S6 protein (pS6P) expression” value ([5]; after 4 hours, 12 hours, and 24 hours) was “strongly down regulated” and the pERK expression ([5]; after 12 hours and 24 hours) was “strong down regulation”. The P70S6 kinase bands ([5]; time-dependent (1-24 hours)) was “down-regulated”.

From patent publication US20160067211A1, “PHARMACEUTICAL COMPOSITION” (Eberhard Karls Universitaet Tuebingen Medizinische Fakultaet, priority 2013, published 2016)
